One compound from patent US20250283048A1, “PLATELET-ACTIVATING FACTOR BLOCKADE INHIBITS TUMOR GROWTH” (The Johns Hopkins University, priority 2022, published 2025) can be followed below.

The test system of test [1] is TP53/CDKN2A^KO GEJ organoids. Nature of the test: Average organoid size by phase-contrast imaging. The format is cell-based, human. The settings on record: WEB2086 at various concentrations vs vehicle control (0.1% DMSO). From the text:
(FIG. 4A) mRNA levels of PTAFR in TP53/CDKN2A^KO vs. control GEJ organoids (left) and normal GEJ vs. EAC tissues. (FIG. 4B) Knockdown of PTAFR mRNA by siRNAs in TP53/CDKN2A^KO GEJ organoids. (FIG. 4C) Average organoid size and (E) cell viability determined by phase-contrast imaging and WST1 assays, respectively. (FIG. 4D) Ki67 labeling images and (FIG. 4E) quantification obtained on Day 7. *P<0.05 vs. same-day siCtrl. Scale bar=100 μm. (FIG. 4F-FIG. 4H) Average organoid size and cell viability (H) determined by phase-contrast imaging and WST1 assays, respectively. (FIG. 4G and FIG. 4H) Ki67 labeling images and quantification obtained on Day 10. Scale bar=100 μm. *P<0.05 vs Ctrl-DMSO on the same day; +, P<0.05 vs. WEB 10 μM on the same day; #P<0.05 vs. WEB 15 μM on the same day;
GEJ organoids were established as described in FIG. 1A. Briefly, fresh endoscopic GEJ biopsies were preserved in ice-cold conditioned PBS (PBS containing 10 μM ROCK inhibitor Y27632, 2% (vol/vol) penicillin/streptomycin, and 1× Primocin) until further processing within 24 hours. After washing biopsies with conditioned PBS at least 5 times, samples were minced into fragments <1 mm^3 using microdissecting scissors. […]
Following centrifugation at 400 g at 4° C. for 3 minutes, pelleted cell clusters were resuspended in Matrigel. […] Culture medium was changed once every three days until the organoids were ready to passage.

For test [2], the system named is TP53/CDKN2A^KO GEJ organoids. The test is described as follows: Organoid viability assay (WST-1 assay). The format is cell-based, human. The procedure: To quantify metabolically active viable cells, organoids were seeded onto 96-well plates and cultured. At indicated time points, 10 μL per well of Cell Proliferation Reagent WST-1 assay kits were added to the 96-well plates and incubated with organoids for 90 minutes. After incubation, only media was transferred to the wells of a new 96-well plate, which was read at an absorbance of 450 nm by a Thermo Scientific Microplate Reader. All experiments were performed in triplicate.
For orientation: Tetrazolium dyes change colour on reduction, which living cells bring about.

The target in test [3] is TP53/CDKN2A^KO GEJ organoids. The test is described as follows: Ki67 immunofluorescence labeling index. The format is cell-based, human. The settings on record: WEB2086 at various concentrations vs vehicle control (0.1% DMSO); Day 10. How it is done: (§1) Organoid cultures and tissues were fixed overnight in 10% formalin at room temperature. Paraffin-embedded organoids and tissues were serially sectioned into 10-μm slices. Paraffin sections were deparaffinized, rehydrated, followed by either staining for hematoxylin and eosin (H&E), or antigen retrieval in sub-boiling 10-mM sodium citrate buffer pH 6.0 for 10 mins. For immunofluorescence (IF), slides were permeabilized in 0.5% TritonX-100 in PBS and blocked in 1% goat serum in PBS for 30 mins at room temperature. After blocking, slides were incubated with anti-Ki67 (1:200, Abcam) overnight in a humidified chamber at 4° C. Sections were washed by PBST (3 times for 5 mins each) and incubated with Alexa Fluor secondary antibodies (1:500) for 1 hr. After washing with PBST, slides were mounted with Fluoroshied with DAPI (Sigma).

The test system of test [4] is TP53/CDKN2A^KO GEJ organoids xenograft. The test is described as follows: Xenotransplantation of TP53/CDKN2A^KO organoid cells in nude mice. The test is classed as in vivo. The settings on record: 5 mg/kg.d intraperitoneal every two days for 3 weeks; 3-month observation; vs 1.25% DMSO. The procedure:
(§2) All procedures and experimental protocols involving mice were approved by the Animal Experimental Committee of the Johns Hopkins University School of Medicine. For xenotransplantation of organoids, 2×10^6 organoid cells or ESO26 cells resuspended in cold 50% Matrigel were injected into the axillary of nude mice. For the WEB2086 treatment assay, 5 mg/kg.d of WEB2086 or vehicle control (1.25% DMSO in PBS) was administered by intraperitoneal injection every two days for 3 weeks. Xenograft size was measured twice a week. The xenograft volume (V) was monitored by measuring the length (L) and width (W) with a caliper based on the formula V=1/2×(L×W^2). Mice were sacrificed at the end of the experiment, and xenografts were excised for further analyses.

The test system of test [5] is Eso26 xenograft. The test is described as follows: Eso26 EAC cell line xenograft in nude mice. The format is in vivo. How it is done: as §1
Immunohistochemistry was performed using the automated Bond-Max autostainer by Leica for the following antibodies: AE1/AE3 (1:200, Santa Cruz). Images were acquired with a Lecia Inverted Confocal SP8 (Johns Hopkins Medicine Ross Imaging Center). Reagents used here are listed in the Key Resources Table.
as §2

[6] abbreviates: WEB2086 5 mg/kg.d intraperitoneal every two days for 3 weeks vs vehicle.

Take `Cc1nnc2n1-c1sc(CCC(=O)N3CCOCC3)cc1C(c1ccccc1Cl)=NC2` [WEB2086]: in test [1], the organoid size result is “significantly reduced”. Further, the “metabolically active cells (WST-1), onset of decrease” value in test [2] (WEB2086 at various concentrations vs 0.1% DMSO) is on record as “began to decrease on day 4”. The “inhibitory effect on metabolically active cells (WST-1)” value in test [2] (WEB2086 at various concentrations, day 7 and 10) was “time- and dose-dependent inhibitory effect”. Moreover, the Ki-67 labeling index entry in test [3] is “significantly reduced”. Further, the tumor formation result in test [4] is recorded as “completely prevented tumor formation”. For the same compound, in test [5] (setting [6]), the EAC xenograft growth result is recorded as “significant suppression” and the EAC xenograft weight result was “significant suppression”. For the same compound, in test [5] (WEB2086 treated Eso26 tumor xenografts), the “Ki67 expression in tumor xenografts (IHC)” value is “downregulated expression”.
